Experimental data as given in PubChem BioAssay (NCI).
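Results reflect a 48-hour exposure of cells in 96-well plates to compound at five concentrations. GI50 is the concentration that inhibits growth by half. TGI denotes the concentration required for complete inhibition of growth.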

Assays:
Assay in all cases: DTP human tumour cell line panel, 48 h
[1] = tested on: 786-0 renal
[2] = tested on: A498 renal
[3] = tested on: A549 NSCLC
[4] = tested on: ACHN renal
[5] = tested on: BT-549 breast
[6] = tested on: CAKI-1 renal
[7] = tested on: CCRF-CEM leukemia
[8] = tested on: COLO 205 colon
[9] = tested on: DU-145 prostate
[10] = tested on: EKVX NSCLC
[11] = tested on: HCC-2998 colon
[12] = tested on: HCT-116 colon
[13] = tested on: HCT-15 colon
[14] = tested on: HL-60(TB) leukemia
[15] = tested on: HOP-62 NSCLC
[16] = tested on: HOP-92 NSCLC
[17] = tested on: HS 578T breast
[18] = tested on: HT29 colon
[19] = tested on: IGROV1 ovarian
[20] = tested on: K-562 leukemia
[21] = tested on: KM12 colon
[22] = tested on: LOX IMVI melanoma
[23] = tested on: M14 melanoma
[24] = tested on: MALME-3M melanoma
[25] = tested on: MCF7 breast
[26] = tested on: MDA-MB-231 breast
[27] = tested on: MDA-MB-435
[28] = tested on: MOLT-4 leukemia
[29] = tested on: NCI-H226 lung
[30] = tested on: NCI-H23 lung
[31] = tested on: NCI-H460 lung
[32] = tested on: NCI-H522 lung
[33] = tested on: NCI/ADR-RES ovarian
[34] = tested on: OVCAR-3 ovarian
[35] = tested on: OVCAR-4 ovarian
[36] = tested on: OVCAR-5 ovarian
[37] = tested on: OVCAR-8 ovarian
[38] = tested on: PC-3 prostate
[39] = tested on: RPMI-8226 leukemia
[40] = tested on: RXF 393 renal
[41] = tested on: SF-268 CNS
[42] = tested on: SF-295 CNS
[43] = tested on: SF-539 CNS
[44] = tested on: SK-MEL-2 melanoma
[45] = tested on: SK-MEL-28 melanoma
[46] = tested on: SK-MEL-5 melanoma
[47] = tested on: SK-OV-3 ovarian
[48] = tested on: SN12C renal
[49] = tested on: SNB-19 CNS
[50] = tested on: SNB-75 CNS
[51] = tested on: SR leukemia
[52] = tested on: SW-620 colon
[53] = tested on: T-47D breast
[54] = tested on: TK-10 renal
[55] = tested on: U251 CNS
[56] = tested on: UACC-257 melanoma
[57] = tested on: UACC-62 melanoma
[58] = tested on: UO-31 renal

With COc1cnc2c(c1)C(=O)c1c-2n(CCCNCC2CC2)c(=O)c2cc(F)ccc12 the GI50 [1] was 386 nM, the TGI [1] was 1380 nM and the GI50 [2] was 969 nM. The TGI [2] was 4110 nM, the GI50 [3] was 262 nM and the TGI [3] was 1550 nM. It also gave a GI50 [4] of 191 nM, a TGI [4] of 717 nM and a GI50 [5] of 1110 nM. For the same compound, the TGI [5] was 3880 nM, the GI50 [6] was 216 nM and the TGI [6] was 1830 nM. It also gave a GI50 [7] of 190 nM, a TGI [7] of 4610 nM and a GI50 [8] of 570 nM. For the same compound, the TGI [8] was 3480 nM, the GI50 [9] was 475 nM and the TGI [9] was 2440 nM. It also gave a GI50 [10] of 1510 nM, a TGI [10] of 5640 nM and a GI50 [11] of 715 nM. The TGI [11] was 2580 nM, the GI50 [12] was 284 nM and the TGI [12] was 1400 nM. It also gave a GI50 [13] of 402 nM, a TGI [13] of 1810 nM and a GI50 [14] of 199 nM. For the same compound, the TGI [14] was 1680 nM, the GI50 [15] was 380 nM and the TGI [15] was 2150 nM. It also gave a GI50 [16] of 1750 nM, a TGI [16] of 7360 nM and a GI50 [17] of 2490 nM. The TGI [17] was 13900 nM, the GI50 [18] was 495 nM and the TGI [18] was 2100 nM. For the same compound, the GI50 [19] was 641 nM, the TGI [19] was 4330 nM and the GI50 [20] was 229 nM. For the same compound, the TGI [20] was 14500 nM, the GI50 [21] was 1400 nM and the TGI [21] was 5730 nM. For the same compound, the GI50 [22] was 206 nM, the TGI [22] was 923 nM and the GI50 [23] was 736 nM. For the same compound, the TGI [23] was 3080 nM, the GI50 [24] was 1030 nM and the TGI [24] was 3150 nM. For the same compound, the GI50 [25] was 76.6 nM, the TGI [25] was 1350 nM and the GI50 [26] was 943 nM. It also gave a TGI [26] of 3440 nM, a GI50 [27] of 1210 nM and a TGI [27] of 3980 nM. The GI50 [28] was 77.1 nM, the TGI [28] was 8900 nM and the GI50 [29] was 751 nM. For the same compound, the TGI [29] was 2020 nM, the GI50 [30] was 577 nM and the TGI [30] was 1950 nM. For the same compound, the GI50 [31] was 104 nM, the TGI [31] was 800 nM and the GI50 [32] was 275 nM. The TGI [32] was 1740 nM, the GI50 [33] was 609 nM and the TGI [33] was 3520 nM. The GI50 [34] was 1110 nM, the TGI [34] was 3800 nM and the GI50 [35] was 1590 nM. The TGI [35] was 3670 nM, the GI50 [36] was 1020 nM and the TGI [36] was 3070 nM. For the same compound, the GI50 [37] was 801 nM, the TGI [37] was 3830 nM and the GI50 [38] was 760 nM. It also gave a TGI [38] of 4930 nM, a GI50 [39] of 474 nM and a TGI [39] of 2870 nM. For the same compound, the GI50 [40] was 855 nM, the TGI [40] was 2590 nM and the GI50 [41] was 1060 nM. It also gave a TGI [41] of 8000 nM, a GI50 [42] of 295 nM and a TGI [42] of 1680 nM. The GI50 [43] was 581 nM, the TGI [43] was 1920 nM and the GI50 [44] was 3680 nM. It also gave a TGI [44] of 8400 nM, a GI50 [45] of 1820 nM and a TGI [45] of 4570 nM. It also gave a GI50 [46] of 1140 nM, a TGI [46] of 2650 nM and a GI50 [47] of 939 nM. The TGI [47] was 2580 nM, the GI50 [48] was 297 nM and the TGI [48] was 2690 nM. The GI50 [49] was 453 nM, the TGI [49] was 3890 nM and the GI50 [50] was 480 nM. For the same compound, the TGI [50] was 3300 nM, the GI50 [51] was 117 nM and the TGI [51] was 1790 nM. It also gave a GI50 [52] of 227 nM, a TGI [52] of 1860 nM and a GI50 [53] of 488 nM. It also gave a TGI [53] of 3100 nM, a GI50 [54] of 1560 nM and a TGI [54] of 4660 nM. The GI50 [55] was 346 nM, the TGI [55] was 2360 nM and the GI50 [56] was 1780 nM. For the same compound, the TGI [56] was 5240 nM, the GI50 [57] was 561 nM and the TGI [57] was 2260 nM. It also gave a GI50 [58] of 304 nM and a TGI [58] of 1590 nM.
